From PMC5864910, “Mutacin 1140 Lantibiotic Variants Are Efficacious Against Clostridium difficile Infection” (Frontiers in Microbiology, 2018)
Converted amounts (≈) assume the structure as drawn. Read-outs that look alike come from different tables or passages of the source. No end group written: not given here.

Columns and labels:
[1] = test system: Ca2+ Channel; assay: Safety Screen 44: Ca2+ Channel; assay type: binding, human
[2] = test system: Nav Channel; assay: Safety Screen 44: Nav Channel; assay type: binding, human
[3] = test system: HepG2 human hepatocellular carcinoma cells
Procedure: The HepG2 cytotoxicity evaluation was performed by MB Research Labs (Spinnerstown, PA, United States) by the Neutral Red Uptake Bioassay of HepG2 human hepatocellular carcinoma cells in culture (ATCC #HB-8065). Briefly, HepG2 cells were seeded in the central 60 wells of 96-well plates and maintained in culture for approximately 24 h. Following pre-incubation, the culture medium was replaced with culture medium containing increasing concentrations of the test articles or control in the vehicle. Test articles were tested in triplicate wells, and reported as the mean. The cells were incubated for 24 h and cell viability was determined by Neutral Red (NR) uptake. For this assay, the medium was then replaced with NR medium (50 μg/mL NR in Hanks’ Balance Salt Solution, HBSS) and the cells were incubated for an additional 3 h. Following uptake of NR, the medium was discarded, the wells were washed with HBSS, and lysing solution (50:49:1 ethanol:water:acetic acid) was added subsequently to each well. The plates were placed on a rocker for 30 min until NR had been extracted from the cells and formed a homogeneous solution. The absorbance of each well was measured at 540 nm on a μQuant^TM plate reader (Bio-Tek Instruments) using KCjunior^TM software. The mean of the outer wells (DMEM2-FBS) was used as a reference control. The mean percent viability was determined for each concentration compared to the vehicle-treated control.

[4] = test system: Kv Channel; assay: Safety Screen 44: Kv Channel; assay type: binding, human
[5] = test system: NMDA ion channel receptor; assay: Safety Screen 44: NMDA; assay type: binding, human
[6] = test system: BZD (central); assay: Safety Screen 44: BZD (central); assay type: binding, human
[7] = test system: Mycobacterium phlei
[8] = test system: Ca2+ Channel; assay: Safety Screen 44: Ca2+ Channel; assay type: binding, human; remark: listed apart in the source
[9] = test system: Nav Channel; assay: Safety Screen 44: Nav Channel; assay type: binding, human; remark: listed apart in the source
[10] = test system: Kv Channel; assay: Safety Screen 44: Kv Channel; assay type: binding, human; remark: listed apart in the source
[11] = test system: BZD (central); assay: Safety Screen 44: BZD (central); assay type: binding, human; remark: listed apart in the source
[12] = test system: Pseudomonas aeruginosa; assay: MIC broth dilution, P. aeruginosa; assay type: cell-based
[13] = test system: Streptococcus pneumonia; assay: microbe, parasite or virus in culture; conditions: Streptococcus pneumoniae, read-out: MIC to S. pneumoniae
[14] = test system: Staphylococcus aureus; conditions: n = 5 strains; unit from method b19
[15] = test system: C. difficile UNT103-1; assay: Cannulated Syrian hamster efficacy/relapse model of C. difficile infection (cHCDAD); assay type: in vivo, Golden Syrian hamsters; conditions: vancomycin 20 mg/Kg QD × 5 days, ileal canula, n = 6
[16] = test system: Clostridium difficile; conditions: n = 3 strains; unit from method b19
[17] = test system: Mycobacterium phlei; assay: microbe, parasite or virus in culture; conditions: Mycolicibacterium phlei
[18] = test system: C. difficile; design: method as in McBride and Sonenshein, 2011; conditions: ref McBride and Sonenshein, 2011, cited from earlier work

C=C1NC(=O)[C@H](Cc2c[nH]c3ccccc23)NC(=O)[C@H](NC(=O)[C@H](CCCCN)NC(=O)[C@@H](N)Cc2ccccc2)CSC[C@@H](C(=O)N[C@H]2C(=O)N3CCC[C@H]3C(=O)NCC(=O)N[C@H](C(=O)N[C@@H](C)C(=O)N[C@@H](CCCNC(=N)N)C(=O)N/C(=C\C)C(=O)NCC(=O)N[C@@H]3CSC[C@@H]4NC(=O)[C@H](Cc5ccc(O)cc5)NC(=O)[C@@H](CS/C=C\NC4=O)NC(=O)[C@H](CC(N)=O)NC(=O)[C@H](Cc4ccc(O)cc4)NC3=O)CS[C@H]2C)NC(=O)[C@H](CC(C)C)NC1=O [F17Y]
Cerep SafetyScreen 44 % Inhibition Ca2+ Channel [1]: -7% | Cerep SafetyScreen 44 % Inhibition Nav Channel [2]: 2% | HepG2 EC50 ([3]; HepG2 cytotoxicity): 514 µg/mL | Cerep SafetyScreen 44 % Inhibition Kv Channel [4]: 2% | Cerep SafetyScreen 44 % Inhibition NMDA ([5]; […]): 12% | Cerep SafetyScreen 44 % Inhibition BZD (central) [6]: -10% | Minimum Inhibitory Concentration Mycobacterium phlei [7]: 2 µg/mL

C=C1NC(=O)[C@H](Cc2c[nH]c3ccccc23)NC(=O)[C@H](NC(=O)[C@H](CCCCN)NC(=O)[C@@H](N)Cc2ccccc2)CSC[C@@H](C(=O)N[C@H]2C(=O)N3CCC[C@H]3C(=O)NCC(=O)N[C@H](C(=O)N[C@@H](C)C(=O)N[C@@H](CCCNC(=N)N)C(=O)N/C(=C\C)C(=O)NCC(=O)N[C@@H]3CSC[C@@H]4NC(=O)[C@H](Cc5ccc(O)cc5)NC(=O)[C@@H](CS/C=C\NC4=O)NC(=O)[C@H](CC(N)=O)NC(=O)[C@H](Cc4ccccc4)NC3=O)CS[C@H]2C)NC(=O)[C@H](C)NC1=O [L6A]
Cerep SafetyScreen 44 % Inhibition Ca2+ Channel [8]: 3% | HepG2 EC50 ([3]; HepG2 cytotoxicity): 466 µg/mL | Cerep SafetyScreen 44 % Inhibition Nav Channel [9]: 8% | Cerep SafetyScreen 44 % Inhibition NMDA [5]: 15% | Minimum Inhibitory Concentration Mycobacterium phlei [7]: 4 µg/mL | Cerep SafetyScreen 44 % Inhibition Kv Channel [10]: 8% | Cerep SafetyScreen 44 % Inhibition BZD (central) [11]: -6%

C=C1NC(=O)[C@H](Cc2c[nH]c3ccccc23)NC(=O)[C@H](NC(=O)[C@H](CCCCN)NC(=O)[C@@H](N)Cc2ccccc2)CSC[C@@H](C(=O)N[C@H]2C(=O)N3CCC[C@H]3C(=O)NCC(=O)N[C@H](C(=O)N[C@@H](C)C(=O)N[C@@H](CCCNC(=N)N)C(=O)N/C(=C\C)C(=O)NCC(=O)N[C@@H]3CSC[C@@H]4NC(=O)[C@H](Cc5ccc(O)cc5)NC(=O)[C@@H](CS/C=C\NC4=O)NC(=O)[C@H](CC(N)=O)NC(=O)[C@H](Cc4ccccc4)NC3=O)CS[C@H]2C)NC(=O)[C@H]([C@@H](C)O)NC1=O [L6T]
HepG2 EC50 ([3]; 24 h): 541 µg/mL | Minimum Inhibitory Concentration Mycobacterium phlei [7]: 4 µg/mL

CC1COc2c(N3CCN(C)CC3)c(F)cc3c(=O)c(C(=O)O)cn1c23 (stereo not drawn) [Ofloxacin]
MIC [12]: 1000 µg/mL (≈ 2770 µM)

C=C1NC(=O)[C@H](Cc2c[nH]c3ccccc23)NC(=O)[C@H](NC(=O)[C@H](CCCCN)NC(=O)[C@@H](N)Cc2ccccc2)CSC[C@@H](C(=O)N[C@H]2C(=O)N[C@@H](Cc3c[nH]cn3)C(=O)NCC(=O)N[C@H](C(=O)N[C@@H](C)C(=O)N[C@@H](CCCNC(=N)N)C(=O)N/C(=C\C)C(=O)NCC(=O)N[C@@H]3CSC[C@@H]4NC(=O)[C@H](Cc5ccc(O)cc5)NC(=O)[C@@H](CS/C=C\NC4=O)NC(=O)[C@H](CC(N)=O)NC(=O)[C@H](Cc4ccccc4)NC3=O)CS[C@H]2C)NC(=O)[C@H](CC(C)C)NC1=O [P9H]
HepG2 EC50 ([3]; 24 h): 218 µg/mL | Minimum Inhibitory Concentration Mycobacterium phlei [7]: 4 µg/mL

C=C1NC(=O)[C@H](Cc2c[nH]c3ccccc23)NC(=O)[C@H](NC(=O)[C@H](CCCCN)NC(=O)[C@@H](N)Cc2ccccc2)CSC[C@@H](C(=O)N[C@H]2C(=O)N3CCC[C@H]3C(=O)NCC(=O)N[C@H](C(=O)N[C@@H](C)C(=O)N[C@@H](C)C(=O)N/C(=C\C)C(=O)NCC(=O)N[C@@H]3CSC[C@@H]4NC(=O)[C@H](Cc5ccc(O)cc5)NC(=O)[C@@H](CS/C=C\NC4=O)NC(=O)[C@H](CC(N)=O)NC(=O)[C@H](Cc4ccccc4)NC3=O)CS[C@H]2C)NC(=O)[C@H](CC(C)C)NC1=O [R13A]
Minimum Inhibitory Concentration Mycobacterium phlei [7]: 8 µg/mL

C=C1NC(=O)[C@H](Cc2c[nH]c3ccccc23)NC(=O)[C@H](NC(=O)[C@H](CCCCN)NC(=O)[C@@H](N)Cc2ccccc2)CSC[C@@H](C(=O)N[C@H]2C(=O)N3CCC[C@H]3C(=O)NCC(=O)N[C@H](C(=O)N[C@@H](C)C(=O)N[C@@H](CC(C)C)C(=O)N/C(=C\C)C(=O)NCC(=O)N[C@@H]3CSC[C@@H]4NC(=O)[C@H](Cc5ccc(O)cc5)NC(=O)[C@@H](CS/C=C\NC4=O)NC(=O)[C@H](CC(N)=O)NC(=O)[C@H](Cc4ccccc4)NC3=O)CS[C@H]2C)NC(=O)[C@H](CC(C)C)NC1=O [R13L]
Minimum Inhibitory Concentration Mycobacterium phlei [7]: 8 µg/mL

C=C1NC(=O)[C@H](C)NC(=O)[C@H](NC(=O)[C@H](CCCCN)NC(=O)[C@@H](N)Cc2ccccc2)CSC[C@@H](C(=O)N[C@H]2C(=O)N3CCC[C@H]3C(=O)NCC(=O)N[C@H](C(=O)N[C@@H](C)C(=O)N[C@@H](CCCNC(=N)N)C(=O)N/C(=C\C)C(=O)NCC(=O)N[C@@H]3CSC[C@@H]4NC(=O)[C@H](Cc5ccc(O)cc5)NC(=O)[C@@H](CS/C=C\NC4=O)NC(=O)[C@H](CC(N)=O)NC(=O)[C@H](Cc4ccccc4)NC3=O)CS[C@H]2C)NC(=O)[C@H](CC(C)C)NC1=O [W4A]
HepG2 EC50 ([3]; 24 h): > 1001 | Minimum Inhibitory Concentration Mycobacterium phlei [7]: 2 µg/mL

C=C1NC(=O)[C@H](C(C)C)NC(=O)[C@H](NC(=O)[C@H](CCCCN)NC(=O)[C@@H](N)Cc2ccccc2)CSC[C@@H](C(=O)N[C@H]2C(=O)N3CCC[C@H]3C(=O)NCC(=O)N[C@H](C(=O)N[C@@H](C)C(=O)N[C@@H](CCCNC(=N)N)C(=O)N/C(=C\C)C(=O)NCC(=O)N[C@@H]3CSC[C@@H]4NC(=O)[C@H](Cc5ccc(O)cc5)NC(=O)[C@@H](CS/C=C\NC4=O)NC(=O)[C@H](CC(N)=O)NC(=O)[C@H](Cc4ccccc4)NC3=O)CS[C@H]2C)NC(=O)[C@H](CC(C)C)NC1=O [W4V]
HepG2 EC50 ([3]; 24 h): > 1002 | Minimum Inhibitory Concentration Mycobacterium phlei [7]: 4 µg/mL

CC1(C)S[C@@H]2[C@H](NC(=O)[C@H](N)c3ccccc3)C(=O)N2[C@H]1C(=O)O [ampicillin]
MIC [13]: 1 µg/mL (≈ 2.86 µM)

CN[C@H](CC(C)C)C(=O)N[C@H]1C(=O)N[C@@H](CC(N)=O)C(=O)N[C@H]2C(=O)N[C@H]3C(=O)N[C@H](C(=O)N[C@H](C(=O)O)c4cc(O)cc(O)c4-c4cc3ccc4O)[C@H](O)c3ccc(c(Cl)c3)Oc3cc2cc(c3O[C@@H]2O[C@H](CO)[C@@H](O)[C@H](O)[C@H]2O[C@H]2C[C@](C)(N)[C@H](O)[C@H](C)O2)Oc2ccc(cc2Cl)[C@H]1O [vancomycin]
MIC against S. aureus (range) [14]: 0.125 to 2 µg/mL | survival at day 21 [15]: 33% | MIC against C. difficile (range) [16]: 0.5 to 4 µg/mL | MIC ([17]; read-out: MIC, M. phlei): 0.25 µg/mL (≈ 0.173 µM) | MIC ([17]; read-out: Minimum Inhibitory Concentration Mycobacterium phlei): 250 µg/mL (≈ 173 µM)

gallidermin (IASKFLCTPGCAKTGSFNSYCC; thioether (positions not given here); also: lanthionine/methyllanthionine bridges, places not given here; UniProt P21838 31-52, looked up) [lantibiotic cited from literature]
MIC increase of C. difficile ([18]; cpr resistance): 2–4 fold | MIC of C. difficile ([18]; level after MIC increase (cpr)): ~1 µg/mL
